According to US20100297265A1, “Optimal compositions and methods for treating oral disease and pain” (priority 2009, published 2010):
Where two headings read alike, the source gives them in different places.

What was measured:
[1] = tested on: Streptococcus mutans strain ATCC 25175; assay: S. mutans growth in TS media with cesium/sodium salts (OD 600 nm, doubling time); assay type: cell-based; settings: for inhibition of culture growth rates: nitrate salt, tested at 25-100 mM; for colonies on TS-agar plate: 50 μL of 100 mM salt culture spread onto TS-agar plate; for Minimum Inhibitory Concentration (MIC): Lineweaver-Burke plot of growth data
Experimental: (§1) Streptococcus mutans strain ATCC 25175 was obtained from American Type Culture Collection in the freeze-dried state. Cells were rehydrated in a trypticase soy-yeast extract media (30 g trypticase soy broth and 3 g yeast extract per liter mqH2O; TS media). The bacteria were grown overnight at 37° C., shaking at 60 rpm in 50 mL broth. For routine propagation of the strain, S. mutans was grown on trypticase soy agar plates, TS media with 15 g/L agar. Escherichia coli strain K12 was grown as a representative enteric bacteria in LB broth (10 g tryptone, 5 g yeast extract and 10 g NaCl per liter mqH2O).
To assess the toxicity of cesium chloride, growth rates were calculated from cultures grown in the absence and presence of cesium chloride with sodium chloride added to controls to maintain consistent ionic strength. The first growth curves conducted used duplicate cultures of 50 mL TS media in 125 mL flasks with foam stoppers. The media was inoculated with 1 mL of the starter culture (2% inoculum) and the optical density was measured at 600 nm. Two conditions were initially tested: 100 mM CsCl and 100 mM NaCl.
An increasing gradient of CsCl concentrations was examined to see how bacterial growth rate varies with salt concentration. Concentrations of 0 mM, 5 mM, 10 mM, 25 mM, 50 mM, 75 mM and 100 mM CsCl were tested; NaCl was used to counter balance control in order to maintain constant ion concentrations.
Additional cesium salts were used to assess alternate inhibitors of S. mutans cultures. Cesium salts of hydroxide, formate, bicarbonate, sulfate, nitrate, fluoride, and iodide were obtained from Fisher Scientific. Growth rates of S. mutans were monitored with 0 mM, 25 mM, 50 mM, and 100 mM cesium salt in TS broth. Control cultures were grown with sodium hydroxide, bicarbonate, nitrate, and sulfate at 0 mM, 25 mM, 50 mM, and 100 mM.
To investigate the inhibition of S. mutans by cesium chloride, growth in the presence and absence of CsCl was compared. Ions were balanced with NaCl in all cultures to a final concentration of 100 mM of supplemental cations added to the media (i.e., for 75 mM CsCl, 25 mM NaCl was added to bring the total concentration of supplemental cation to 100 mM). All data is presented in optical density absorbance measurements at 600 nm, or doubling times (the length of time it takes for a culture to double in time).

[2] = tested on: E. coli potassium channel mutants (Kch JW1242, TrkG JW1358, TrkH JW5576, KdpA JW0686); assay: Growth of E. coli potassium channel mutants with CsCl; assay type: cell-based, Escherichia coli
Experimental: In order to better understand the mechanism of inhibition, the following potassium channel mutants of E. coli from the Keio collection were obtained from the Coli Genetic Stock Center at Yale University: Kch mutant JW 1242-1, TrkG mutant JW 1358-1, TrkH mutant JW 5576-1, and KdpA mutant JW686-5. Mutant E. coli strains were grown in LB broth in the presence or absence of CsCl (either 0 mM, 50 mM, or 100 mM CsCl) to assess the role of potassium transport channels in cesium inhibition.
It was hypothesized that, as a larger monovalent cation, cesium could block potassium channels, thereby blocking the uptake of potassium into the cell and retarding cell growth. Strains of E. coli with non-essential genes knocked out were acquired from the Yale Coli Genetic Stock Center. Four mutants were chosen: JW0686, a KdpA mutant, a cesium inducible potassium transporting ATPase; JW1242, a Kch mutant, a conductive potassium transporter; JW1358, a TrkG mutant, a transmembrane component of the Trk potassium uptake system; JW5576, a TrkH mutant, a transmembrane component of the Trk potassium uptake system. TrkG and TrkH determine the specificity of the Trk protein. Because of their similarity (i.e., 41% nucleotide homology), Trk can be made with either one of the two subunits if the other is not available, although TrkG is preferred.

S. mutans [3] = assay: Spiking of exponentially growing S. mutans cultures; assay type: cell-based, Streptococcus mutans; settings: for doubling time: culture spiked with 100 mM salt in early exponential phase
Experimental: To determine how CsCl affects exponentially growing S. mutans cells, cultures were spiked with CsCl. TS media was prepared as in previous experiments and cultures were started with 0.2% inoculum. The cultures were grown for three and a half hours while monitoring the growth with the OD at 600 nm. When the cultures were in early exponential growth phase, they were spiked with 100 mM CsCl, 100 mM NaCl, or Listerine mouthwash in a 1:10 or 1:100 dilution in TS media.

[4] = tested on: Escherichia coli strain K12; assay: E. coli K12 growth in LB broth with CsCl; assay type: cell-based
Experimental: as §1
An increasing gradient of CsCl concentrations was examined to see how bacterial growth rate varies with salt concentration. Concentrations of 0 mM, 5 mM, 10 mM, 25 mM, 50 mM, 75 mM and 100 mM CsCl were tested; NaCl was used to counter balance control in order to maintain constant ion concentrations. Additional gradient growth curves with 0 mM, 20 mM, 30 mM, 40 mM and 50 mM CsCl were conducted to refine the inhibition profile of S. mutans.

S. mutans [5] = assay: S. mutans growth with CsCl under differing pH conditions; assay type: cell-based, Streptococcus mutans
S. mutans [6] = settings: previous study, cited from earlier work
[7] = 0, 25, 50 and 100 mM cesium salt

Molecule: [Cs+].[F-] [Cesium fluoride]
- inhibition of S. mutans growth [1, 7]: little to no inhibition

Molecule: O=C[O-].[Cs+] [Cesium formate]
- inhibition of S. mutans growth [1, 7]: little to no inhibition

Molecule: [Cs+].[OH-] [Cesium hydroxide]
- inhibition of S. mutans growth ([1]; 50 mM or greater, due to increase in pH): inhibited cultures completely
- pH of the media (50 mM): 9.5
- pH of the media (100 mM): 12.5

Molecule: [Cs+].[I-] [Cesium iodide]
- inhibition of S. mutans growth [1, 7]: little to no inhibition

Molecule: O=[N+]([O-])[O-].[Cs+] [Cesium nitrate]
- inhibition of culture growth rates [1]: roughly 30%

Molecule: O=S(=O)([O-])[O-].[Cs+].[Cs+] [Cesium sulfate]
- inhibition of S. mutans growth ([1]; concentrations of 50 mM or below): not inhibitory

Molecule: [Cl-].[Cs+] [CsCl, cesium chloride]
- inhibition of mutants ([2]; 0, 50 or 100 mM CsCl in LB broth): some inhibition
- reduction in growth rate ([2]; 100 mM CsCl vs control with 100 mM NaCl, most inhibited cultures): roughly one third
- doubling time (S. mutans [3]): 2.49 h
- maximum yield ([1]; 0, 5, 10 and 25 mM CsCl cultures, OD 600 nm): 0.9 OD units
- doubling time ([1]; 5 mM CsCl, NaCl added to 100 mM total supplemental cation): 1.06 h
- doubling time ([1]; 10 mM CsCl, NaCl added to 100 mM total supplemental cation): 0.94 h
- doubling time ([1]; 25 mM CsCl, NaCl added to 100 mM total supplemental cation): 1.17 h
- doubling time ([1]; 50 mM CsCl, NaCl added to 100 mM total supplemental cation): 1.54 h
- doubling time ([1]; 75 mM CsCl, NaCl added to 100 mM total supplemental cation): 2.37 h
- doubling time ([1]; 100 mM CsCl): 4.17 h
- growth of S. mutans ([1]; 100 mM CsCl culture): almost completely inhibited
- colonies on TS-agar plate [1]: thin translucent colonies after a week
- Minimum Inhibitory Concentration (MIC) [1]: 61.2 mM
- doubling time ([4]; all CsCl concentrations tested (0-100 mM)): approximately 1 h
- effect on growth rate ([4]; concentrations as high as 100 mM CsCl, LB media): minimal effect
- doubling time (S. mutans [5]; 25 mM CsCl, pH 7.00): 52 min
- inhibition (S. mutans [5]; 25 mM CsCl, pH 7.25): No inhibition
- doubling time (S. mutans [5]; 25 mM CsCl, pH 8.33): 64 min
- increase of doubling time (S. mutans [5]; 25 mM CsCl, pH 8.33 vs pH 7.00): 25%
- inhibition relative to neutral pH (S. mutans [5]; 100 mM, pH 8.33): more inhibitory
- inhibition relative to neutral or basic pH (S. mutans [5]; pH 4.50): less inhibitory
- inhibition relative to other pH tested (S. mutans [5]; pH 8.33): strongest inhibition

Molecule: [Cl-].[Na+] [NaCl, sodium chloride]
- yield (S. mutans [3]; 100 mM spiked control): 0.9 OD units
- doubling time (S. mutans [3]): 1.21 h
- doubling time ([1]; 100 mM NaCl (presented as 0 mM CsCl)): roughly 1 hour
- colonies on TS-agar plate [1]: small opaque white colonies overnight

Molecule: [Na+].[OH-] [NaOH, sodium hydroxide]
- pH of the media (50 mM): 9.5
- pH of the media (100 mM): 12.5

Molecule: O=C([O-])O.[Na+] [sodium bicarbonate]
- completely inhibitory concentration (S. mutans [6]; 8% w/v converted): ~950 mM
- completely inhibitory concentration (S. mutans [6]): 8 % w/v

Molecule: O=[N+]([O-])[O-].[Na+] [sodium nitrate]
- inhibition of culture growth rates [1]: roughly 30%

Molecule: cesium bicarbonate
- inhibition of S. mutans growth ([1]; 50 mM): increased inhibition
- inhibition of S. mutans growth ([1]; 100 mM): complete inhibition
- Minimum Inhibitory Concentration (MIC) [1]: 40.5 mM
- inhibition compared with sodium bicarbonate control ([1]; concentrations less than 45 mM): not significantly different
- inhibition compared with sodium bicarbonate control ([1]; concentrations of 45 mM or greater): inhibited S. mutans growth more than the control cultures
- MIC lower than the MIC for CsCl by ([1]; difference of MIC values): more than 20 mM
